Results reported in ChEMBL document CHEMBL5442175, “EUbOPEN Chemogenomics Library - PDSP Secondary Binding” (2024).

Legend:
[1] = molecular target: Kappa-type opioid receptor (Homo sapiens, UniProt P41145); assay: (§1) PDSP Secondary Binding target: OPRK1 - Compounds are tested at 10 uM concentration, plate are incubated at room temperature in the dark for 90 minutes. Reaction are stopped by vacuum filtration onto 0.3% polyethyleneimine soaked filter mats using Filtermate harvester. Scintillation cocktail is then melted onto microwave-dried filters on a hot plate and the radio activity is counted in Microbia counter.
[2] = molecular target: 5-hydroxytryptamine receptor 7 (Homo sapiens, UniProt P34969); assay: as §1, with “HTR7” for “OPRK1”
[3] = molecular target: T1, Muscarinic acetylcholine receptor M5 (Homo sapiens, UniProt P08912); assay: as §1, with “CHRM5” for “OPRK1”
T1 sequence (P08912 whole entry): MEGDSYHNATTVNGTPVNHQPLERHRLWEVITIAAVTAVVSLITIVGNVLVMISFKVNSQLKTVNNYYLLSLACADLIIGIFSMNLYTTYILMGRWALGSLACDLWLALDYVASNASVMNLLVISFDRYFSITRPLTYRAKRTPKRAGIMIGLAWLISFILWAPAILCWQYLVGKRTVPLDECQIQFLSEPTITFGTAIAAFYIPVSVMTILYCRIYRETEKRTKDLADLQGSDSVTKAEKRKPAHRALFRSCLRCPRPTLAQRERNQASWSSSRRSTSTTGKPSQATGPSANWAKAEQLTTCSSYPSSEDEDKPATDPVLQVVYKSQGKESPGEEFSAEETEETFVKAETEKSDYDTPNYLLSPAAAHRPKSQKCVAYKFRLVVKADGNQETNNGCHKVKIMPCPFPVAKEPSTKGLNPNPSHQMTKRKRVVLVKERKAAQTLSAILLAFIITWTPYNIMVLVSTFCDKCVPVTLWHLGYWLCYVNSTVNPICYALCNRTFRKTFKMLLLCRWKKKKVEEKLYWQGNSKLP

[4] = molecular target: Sigma non-opioid intracellular receptor 1 (Homo sapiens, UniProt Q99720); assay: as §1, with “SIGMAR1” for “OPRK1”
[5] = molecular target: Sigma intracellular receptor 2 (Homo sapiens, UniProt Q5BJF2); assay: as §1, with “TMEM97” for “OPRK1”
D(1B) dopamine receptor = D(1B) dopamine receptor (Homo sapiens, UniProt P21918); assay: as §1, with “DRD5” for “OPRK1”
[6] = molecular target: 5-hydroxytryptamine receptor 1E (Homo sapiens, UniProt P28566); assay: as §1, with “HTR1E” for “OPRK1”
[7] = molecular target: 5-hydroxytryptamine receptor 1D (Homo sapiens, UniProt P28221); assay: as §1, with “HTR1D” for “OPRK1”
Histamine H3 receptor = Histamine H3 receptor (Homo sapiens, UniProt Q9Y5N1); assay: as §1, with “HRH3” for “OPRK1”
[8] = molecular target: T2, 5-hydroxytryptamine receptor 1A (Homo sapiens, UniProt P08908); assay: as §1, with “HTR1A” for “OPRK1”
T2 sequence (P08908 whole entry): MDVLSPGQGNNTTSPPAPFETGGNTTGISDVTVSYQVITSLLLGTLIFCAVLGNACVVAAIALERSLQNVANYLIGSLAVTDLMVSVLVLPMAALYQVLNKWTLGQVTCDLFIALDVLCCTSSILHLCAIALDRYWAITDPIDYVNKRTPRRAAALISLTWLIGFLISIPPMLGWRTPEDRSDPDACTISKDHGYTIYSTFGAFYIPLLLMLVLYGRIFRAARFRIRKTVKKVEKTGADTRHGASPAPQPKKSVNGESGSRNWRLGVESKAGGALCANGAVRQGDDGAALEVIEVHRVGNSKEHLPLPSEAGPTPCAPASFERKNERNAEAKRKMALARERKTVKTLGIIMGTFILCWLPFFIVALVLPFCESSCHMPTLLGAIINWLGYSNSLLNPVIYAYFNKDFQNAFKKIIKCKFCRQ

[9] = molecular target: T3, Alpha-1B adrenergic receptor (Homo sapiens, UniProt P35368); assay: as §1, with “ADRA1B” for “OPRK1”
T3 sequence (P35368 whole entry): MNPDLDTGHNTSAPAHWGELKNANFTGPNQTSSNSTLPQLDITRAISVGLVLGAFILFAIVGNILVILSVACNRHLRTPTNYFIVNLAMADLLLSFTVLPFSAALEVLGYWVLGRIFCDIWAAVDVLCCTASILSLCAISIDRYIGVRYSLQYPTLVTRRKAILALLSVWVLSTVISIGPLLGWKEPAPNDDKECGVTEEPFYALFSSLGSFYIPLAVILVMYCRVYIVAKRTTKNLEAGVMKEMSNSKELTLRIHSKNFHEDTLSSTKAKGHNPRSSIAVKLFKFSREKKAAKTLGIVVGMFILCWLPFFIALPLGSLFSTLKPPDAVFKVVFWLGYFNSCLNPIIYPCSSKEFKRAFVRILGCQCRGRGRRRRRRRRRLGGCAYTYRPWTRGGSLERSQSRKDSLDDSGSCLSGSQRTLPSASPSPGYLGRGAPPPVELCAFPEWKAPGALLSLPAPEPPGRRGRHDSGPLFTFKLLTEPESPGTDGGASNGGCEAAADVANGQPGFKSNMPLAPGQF

D(2) dopamine receptor = D(2) dopamine receptor (Homo sapiens, UniProt P14416); assay: as §1, with “DRD2” for “OPRK1”
D(4) dopamine receptor = molecular target: T4, D(4) dopamine receptor (Homo sapiens, UniProt P21917); assay: as §1, with “DRD4” for “OPRK1”
T4 sequence (P21917 whole entry): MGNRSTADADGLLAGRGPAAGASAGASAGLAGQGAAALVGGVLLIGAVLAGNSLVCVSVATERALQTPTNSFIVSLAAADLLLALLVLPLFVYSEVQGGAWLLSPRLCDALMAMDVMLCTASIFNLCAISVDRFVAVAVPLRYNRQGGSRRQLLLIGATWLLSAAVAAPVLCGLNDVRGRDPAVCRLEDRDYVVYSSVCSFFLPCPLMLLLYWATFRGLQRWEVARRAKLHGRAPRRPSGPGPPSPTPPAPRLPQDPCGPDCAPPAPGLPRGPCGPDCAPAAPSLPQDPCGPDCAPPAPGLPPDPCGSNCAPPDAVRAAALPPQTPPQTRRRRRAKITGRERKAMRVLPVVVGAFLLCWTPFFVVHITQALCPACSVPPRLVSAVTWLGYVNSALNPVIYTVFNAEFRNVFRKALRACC

Mu-type opioid receptor = Mu-type opioid receptor (Homo sapiens, UniProt P35372); assay: as §1, with “OPRM1” for “OPRK1”
[10] = molecular target: T5, Alpha-2A adrenergic receptor (Homo sapiens, UniProt P08913); assay: as §1, with “ADRA2A” for “OPRK1”
T5 sequence (P08913 whole entry): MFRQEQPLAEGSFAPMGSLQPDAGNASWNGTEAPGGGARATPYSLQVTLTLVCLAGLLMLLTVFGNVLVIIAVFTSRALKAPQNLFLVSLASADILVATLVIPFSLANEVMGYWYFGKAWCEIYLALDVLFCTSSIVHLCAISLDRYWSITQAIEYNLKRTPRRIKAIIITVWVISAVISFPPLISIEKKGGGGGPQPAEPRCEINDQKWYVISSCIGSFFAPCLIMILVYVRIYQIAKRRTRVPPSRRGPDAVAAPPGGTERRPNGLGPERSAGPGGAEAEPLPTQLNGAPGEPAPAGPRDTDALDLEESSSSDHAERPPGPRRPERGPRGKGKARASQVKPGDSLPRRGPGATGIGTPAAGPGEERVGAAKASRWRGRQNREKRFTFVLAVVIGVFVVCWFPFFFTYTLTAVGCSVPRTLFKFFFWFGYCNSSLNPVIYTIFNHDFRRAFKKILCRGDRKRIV

[11] = molecular target: Sodium-dependent noradrenaline transporter (Homo sapiens, UniProt P23975); assay: as §1, with “SLC6A2” for “OPRK1”
D(3) dopamine receptor = D(3) dopamine receptor (Homo sapiens, UniProt P35462); assay: as §1, with “DRD3” for “OPRK1”
[12] = molecular target: 5-hydroxytryptamine receptor 5A (Homo sapiens, UniProt P47898); assay: as §1, with “HTR5A” for “OPRK1”
[13] = molecular target: T6, Alpha-1D adrenergic receptor (Homo sapiens, UniProt P25100); assay: as §1, with “ADRA1D” for “OPRK1”
T6 sequence (P25100 whole entry): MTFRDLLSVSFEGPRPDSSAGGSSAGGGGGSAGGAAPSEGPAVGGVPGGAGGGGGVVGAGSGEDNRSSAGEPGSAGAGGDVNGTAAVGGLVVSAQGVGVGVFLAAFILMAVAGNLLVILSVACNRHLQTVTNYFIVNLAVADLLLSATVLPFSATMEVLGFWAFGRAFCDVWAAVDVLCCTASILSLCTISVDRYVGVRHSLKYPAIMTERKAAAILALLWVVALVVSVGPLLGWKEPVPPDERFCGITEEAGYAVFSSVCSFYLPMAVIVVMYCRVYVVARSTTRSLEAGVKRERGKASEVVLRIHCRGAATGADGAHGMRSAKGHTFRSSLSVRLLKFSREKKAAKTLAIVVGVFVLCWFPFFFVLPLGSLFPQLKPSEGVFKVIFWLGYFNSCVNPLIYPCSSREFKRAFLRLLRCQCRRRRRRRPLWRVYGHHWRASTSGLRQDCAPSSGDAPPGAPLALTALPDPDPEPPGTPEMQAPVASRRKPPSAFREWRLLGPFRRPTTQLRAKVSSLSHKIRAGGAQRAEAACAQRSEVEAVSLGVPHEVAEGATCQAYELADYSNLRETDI

Translocator protein = Translocator protein (Homo sapiens, UniProt P30536); assay: as §1, with “TSPO” for “OPRK1”
[14] = molecular target: T7, Alpha-2C adrenergic receptor (Homo sapiens, UniProt P18825); assay: as §1, with “ADRA2C” for “OPRK1”
T7 sequence (P18825 whole entry): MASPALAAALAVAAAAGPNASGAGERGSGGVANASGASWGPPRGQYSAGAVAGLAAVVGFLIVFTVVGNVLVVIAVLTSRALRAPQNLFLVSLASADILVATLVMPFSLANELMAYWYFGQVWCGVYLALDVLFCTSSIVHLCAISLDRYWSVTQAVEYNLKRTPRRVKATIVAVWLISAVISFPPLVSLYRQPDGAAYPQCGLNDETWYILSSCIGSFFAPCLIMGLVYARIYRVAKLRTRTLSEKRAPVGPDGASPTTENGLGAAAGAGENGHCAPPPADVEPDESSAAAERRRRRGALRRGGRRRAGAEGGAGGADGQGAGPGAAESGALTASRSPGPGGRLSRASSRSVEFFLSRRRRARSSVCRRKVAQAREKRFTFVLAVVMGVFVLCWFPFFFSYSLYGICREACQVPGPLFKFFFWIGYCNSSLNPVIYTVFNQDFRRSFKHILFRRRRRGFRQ

[15] = molecular target: Beta-3 adrenergic receptor (Homo sapiens, UniProt P13945); assay: as §1, with “ADRB3” for “OPRK1”
[16] = molecular target: 5-hydroxytryptamine receptor 2A (Homo sapiens, UniProt P28223); assay: as §1, with “HTR2A” for “OPRK1”
Chain of 5-hydroxytryptamine receptor 2A (P28223 whole entry): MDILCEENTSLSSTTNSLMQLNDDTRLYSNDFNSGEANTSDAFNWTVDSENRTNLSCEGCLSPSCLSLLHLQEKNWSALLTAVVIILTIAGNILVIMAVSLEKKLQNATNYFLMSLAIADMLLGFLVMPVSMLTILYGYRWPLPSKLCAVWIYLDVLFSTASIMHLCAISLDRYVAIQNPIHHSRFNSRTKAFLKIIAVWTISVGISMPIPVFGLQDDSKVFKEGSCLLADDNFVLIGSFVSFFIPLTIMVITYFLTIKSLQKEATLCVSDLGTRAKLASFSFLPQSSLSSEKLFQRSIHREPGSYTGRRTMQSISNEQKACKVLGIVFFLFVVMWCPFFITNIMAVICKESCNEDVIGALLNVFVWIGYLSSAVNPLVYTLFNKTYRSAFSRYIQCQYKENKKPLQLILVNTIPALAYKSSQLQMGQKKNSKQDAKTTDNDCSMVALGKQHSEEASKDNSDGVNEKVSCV

Chain of Sigma intracellular receptor 2 (Q5BJF2 whole entry): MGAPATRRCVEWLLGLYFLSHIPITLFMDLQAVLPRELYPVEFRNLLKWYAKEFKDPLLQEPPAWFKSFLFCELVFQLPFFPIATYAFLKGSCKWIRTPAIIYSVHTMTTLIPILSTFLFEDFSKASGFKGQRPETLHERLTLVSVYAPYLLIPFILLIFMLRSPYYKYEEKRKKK
Chain of 5-hydroxytryptamine receptor 1E (P28566 whole entry): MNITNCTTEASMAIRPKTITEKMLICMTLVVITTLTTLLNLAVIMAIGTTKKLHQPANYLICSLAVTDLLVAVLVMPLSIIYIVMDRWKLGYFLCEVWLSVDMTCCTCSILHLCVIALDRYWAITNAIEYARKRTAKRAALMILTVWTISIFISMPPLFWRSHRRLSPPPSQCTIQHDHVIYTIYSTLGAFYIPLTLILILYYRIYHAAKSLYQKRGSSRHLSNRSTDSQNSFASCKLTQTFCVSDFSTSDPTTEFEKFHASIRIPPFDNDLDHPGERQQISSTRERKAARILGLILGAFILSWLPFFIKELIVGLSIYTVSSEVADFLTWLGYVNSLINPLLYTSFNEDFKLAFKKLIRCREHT
Chain of Sigma non-opioid intracellular receptor 1 (Q99720 whole entry): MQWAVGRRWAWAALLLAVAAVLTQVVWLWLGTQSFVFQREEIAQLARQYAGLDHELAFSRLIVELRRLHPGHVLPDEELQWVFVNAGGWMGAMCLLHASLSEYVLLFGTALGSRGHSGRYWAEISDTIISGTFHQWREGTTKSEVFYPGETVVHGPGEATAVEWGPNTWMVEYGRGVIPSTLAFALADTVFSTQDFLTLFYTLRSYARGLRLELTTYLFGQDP
Chain of 5-hydroxytryptamine receptor 7 (P34969 whole entry): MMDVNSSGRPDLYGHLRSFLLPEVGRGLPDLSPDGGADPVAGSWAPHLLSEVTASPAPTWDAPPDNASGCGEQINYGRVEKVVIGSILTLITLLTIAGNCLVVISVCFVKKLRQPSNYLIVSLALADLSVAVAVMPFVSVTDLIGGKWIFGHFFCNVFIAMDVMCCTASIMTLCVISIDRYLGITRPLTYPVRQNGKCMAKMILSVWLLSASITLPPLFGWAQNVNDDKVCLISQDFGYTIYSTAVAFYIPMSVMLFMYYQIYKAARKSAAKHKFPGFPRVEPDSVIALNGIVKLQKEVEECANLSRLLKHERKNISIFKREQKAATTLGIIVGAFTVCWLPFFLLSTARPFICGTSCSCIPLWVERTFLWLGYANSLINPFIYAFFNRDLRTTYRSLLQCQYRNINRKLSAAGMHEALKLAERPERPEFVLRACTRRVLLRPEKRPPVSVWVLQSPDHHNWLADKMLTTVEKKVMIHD
Chain of Mu-type opioid receptor (P35372 whole entry): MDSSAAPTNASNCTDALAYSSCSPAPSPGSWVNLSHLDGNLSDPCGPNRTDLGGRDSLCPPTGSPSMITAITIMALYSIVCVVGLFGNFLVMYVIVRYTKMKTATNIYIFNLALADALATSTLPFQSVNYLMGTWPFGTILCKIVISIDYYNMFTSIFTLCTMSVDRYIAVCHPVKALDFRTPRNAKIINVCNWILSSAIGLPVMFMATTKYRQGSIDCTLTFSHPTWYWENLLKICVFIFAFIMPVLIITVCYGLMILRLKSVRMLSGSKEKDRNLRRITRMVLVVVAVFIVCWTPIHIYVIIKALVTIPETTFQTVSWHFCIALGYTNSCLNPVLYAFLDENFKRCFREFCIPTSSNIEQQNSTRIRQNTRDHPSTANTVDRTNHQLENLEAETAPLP
Chain of D(1B) dopamine receptor (P21918 whole entry): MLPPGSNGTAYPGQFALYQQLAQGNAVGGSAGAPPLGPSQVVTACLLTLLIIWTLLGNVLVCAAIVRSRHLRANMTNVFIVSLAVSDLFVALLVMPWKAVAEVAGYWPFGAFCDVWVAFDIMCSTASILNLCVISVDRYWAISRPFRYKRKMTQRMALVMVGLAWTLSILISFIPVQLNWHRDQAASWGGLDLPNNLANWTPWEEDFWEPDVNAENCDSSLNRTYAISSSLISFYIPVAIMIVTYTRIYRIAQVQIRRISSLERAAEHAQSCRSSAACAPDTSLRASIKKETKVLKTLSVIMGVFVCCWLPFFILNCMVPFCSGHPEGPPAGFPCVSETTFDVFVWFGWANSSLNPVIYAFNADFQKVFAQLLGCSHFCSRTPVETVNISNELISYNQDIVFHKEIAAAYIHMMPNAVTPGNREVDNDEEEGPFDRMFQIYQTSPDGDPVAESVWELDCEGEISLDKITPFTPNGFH
Chain of 5-hydroxytryptamine receptor 1D (P28221 whole entry): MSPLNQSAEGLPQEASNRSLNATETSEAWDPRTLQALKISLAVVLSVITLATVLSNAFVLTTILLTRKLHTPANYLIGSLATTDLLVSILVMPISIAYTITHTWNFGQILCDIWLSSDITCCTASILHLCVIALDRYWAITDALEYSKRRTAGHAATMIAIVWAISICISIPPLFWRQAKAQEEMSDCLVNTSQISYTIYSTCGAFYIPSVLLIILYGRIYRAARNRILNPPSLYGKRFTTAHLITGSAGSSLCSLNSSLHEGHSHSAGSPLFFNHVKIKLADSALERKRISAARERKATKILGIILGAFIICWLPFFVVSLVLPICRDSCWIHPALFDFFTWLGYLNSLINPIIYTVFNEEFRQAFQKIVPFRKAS
Chain of Kappa-type opioid receptor (P41145 whole entry): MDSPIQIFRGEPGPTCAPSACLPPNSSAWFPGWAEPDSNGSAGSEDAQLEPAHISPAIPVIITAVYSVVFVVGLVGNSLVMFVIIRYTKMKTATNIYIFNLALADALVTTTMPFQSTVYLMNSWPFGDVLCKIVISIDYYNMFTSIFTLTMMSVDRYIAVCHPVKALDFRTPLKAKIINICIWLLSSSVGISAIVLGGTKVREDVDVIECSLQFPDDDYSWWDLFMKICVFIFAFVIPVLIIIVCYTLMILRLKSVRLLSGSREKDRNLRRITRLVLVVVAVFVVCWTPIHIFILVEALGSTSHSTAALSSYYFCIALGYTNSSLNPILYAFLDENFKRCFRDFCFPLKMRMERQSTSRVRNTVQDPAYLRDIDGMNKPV
Chain of D(2) dopamine receptor (P14416 whole entry): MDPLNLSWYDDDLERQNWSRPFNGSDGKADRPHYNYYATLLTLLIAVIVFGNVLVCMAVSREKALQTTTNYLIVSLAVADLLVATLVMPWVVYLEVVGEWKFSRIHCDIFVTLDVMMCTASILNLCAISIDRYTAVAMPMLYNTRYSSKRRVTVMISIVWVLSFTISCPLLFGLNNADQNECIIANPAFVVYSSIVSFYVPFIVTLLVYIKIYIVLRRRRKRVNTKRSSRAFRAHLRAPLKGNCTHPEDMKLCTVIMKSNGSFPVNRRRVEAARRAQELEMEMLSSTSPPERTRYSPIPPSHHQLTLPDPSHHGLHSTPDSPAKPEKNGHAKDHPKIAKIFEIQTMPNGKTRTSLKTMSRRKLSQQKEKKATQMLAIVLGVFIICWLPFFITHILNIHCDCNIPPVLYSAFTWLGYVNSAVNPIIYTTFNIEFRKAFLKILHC
Chain of D(3) dopamine receptor (P35462 whole entry): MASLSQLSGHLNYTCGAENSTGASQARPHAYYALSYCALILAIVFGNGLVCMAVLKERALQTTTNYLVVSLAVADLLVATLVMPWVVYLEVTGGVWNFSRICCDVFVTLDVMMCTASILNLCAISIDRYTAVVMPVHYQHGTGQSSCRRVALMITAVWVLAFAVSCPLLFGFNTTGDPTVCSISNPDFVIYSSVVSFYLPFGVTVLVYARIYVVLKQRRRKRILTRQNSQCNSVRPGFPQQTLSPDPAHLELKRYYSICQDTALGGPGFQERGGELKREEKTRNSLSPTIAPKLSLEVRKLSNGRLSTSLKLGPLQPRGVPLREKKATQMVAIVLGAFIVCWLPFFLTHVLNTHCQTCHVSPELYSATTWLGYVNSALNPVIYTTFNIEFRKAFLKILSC
Chain of Histamine H3 receptor (Q9Y5N1 whole entry): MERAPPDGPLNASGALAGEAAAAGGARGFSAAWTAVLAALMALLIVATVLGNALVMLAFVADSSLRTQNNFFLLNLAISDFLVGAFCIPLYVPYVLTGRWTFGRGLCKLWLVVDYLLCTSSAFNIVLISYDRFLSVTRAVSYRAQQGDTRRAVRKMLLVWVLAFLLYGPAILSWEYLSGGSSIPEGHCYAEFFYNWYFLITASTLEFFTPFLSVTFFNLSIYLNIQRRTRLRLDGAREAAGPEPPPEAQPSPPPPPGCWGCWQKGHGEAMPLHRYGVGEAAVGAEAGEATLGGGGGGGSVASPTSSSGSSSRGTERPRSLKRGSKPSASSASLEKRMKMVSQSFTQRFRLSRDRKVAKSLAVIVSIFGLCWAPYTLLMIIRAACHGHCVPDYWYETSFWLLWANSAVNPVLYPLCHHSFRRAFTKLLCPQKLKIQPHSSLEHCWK
Chain of Translocator protein (P30536 whole entry): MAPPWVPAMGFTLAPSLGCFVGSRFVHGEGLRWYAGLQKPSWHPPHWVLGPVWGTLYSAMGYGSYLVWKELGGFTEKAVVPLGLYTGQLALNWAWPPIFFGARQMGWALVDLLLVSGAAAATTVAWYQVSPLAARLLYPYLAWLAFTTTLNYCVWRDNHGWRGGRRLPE

## CN1CCC(C(=O)c2cccc(NC(=O)c3c(F)cc(F)cc3F)n2)CC1
[1]
  Ki: 357 nM
[2]
  Ki: 5410 nM
[3]
  Ki: 632 nM
[4]
  Ki: 3130 nM
[5]
  Ki: 184 nM
D(1B) dopamine receptor
  Ki: 253 nM
[6]
  Ki: 127 nM
[7]
  Ki: 869 nM

## c1nc(CC2CCNCC2)c[nH]1
Histamine H3 receptor
  Ki: 0.63 nM

## CN[C@@H]1CCc2[nH]c3ccc(C(N)=O)cc3c2C1 [FROVATRIPTAN SUCCINATE]
[8]
  Ki: 1470 nM
[9]
  Ki: > 10000 nM
D(2) dopamine receptor
  Ki: 694 nM
D(4) dopamine receptor
  Ki: 909 nM
[5]
  Ki: 3260 nM
Mu-type opioid receptor
  Ki: 187 nM
[6]
  Ki: 311 nM

## Cc1cc(C)cc(-c2cnc3cc(Cl)c(-c4cccc(O)c4)cc3c2OCCCN)c1
[10]
  Ki: 852 nM
[11]
  Ki: 5810 nM
[2]
  Ki: 2180 nM
D(3) dopamine receptor
  Ki: 416 nM
[12]
  Ki: 847 nM
[13]
  Ki: 1680 nM
[4]
  Ki: > 10000 nM
[5]
  Ki: 5210 nM
Mu-type opioid receptor
  Ki: 5570 nM
D(1B) dopamine receptor
  Ki: 993 nM
[6]
  Ki: 5710 nM
Translocator protein
  Ki: 522 nM
[14]
  Ki: 846 nM
[7]
  Ki: 292 nM
[15]
  Ki: 2780 nM
[16]
  Ki: 3430 nM
